In brackets after ≈: the same amount, converted by molar mass.
Columns and labels:
Format in all cases: cell-based, Pseudomonas aeruginosa
[1] = system: PA14 ΔfpvA ΔfpvB ΔfiuA ΔfoxA quadruple mutant; test: Growth phenotypes of deletion mutants, quadruple mutant; settings: 64 μg/mL DSX, 10 μg/mL siderophores, 10:90
Text: (§1) PA14, ΔfpvA, ΔfpvB, and ΔfpvA ΔfpvB strains treated with TS (A) and DSX (B) in 10:90. Green indicates growth, and white indicates no growth. Growth is expressed as percent of control. The PA14 ΔfpvA ΔfpvB strain complemented with pHERD20T, fpvA, or fpvB treated with TS (C) and DSX (D) in 10:90. […] All experiments are averaged from three independent biological replicates. Blue indicates growth and white indicates no growth. (H) Summary of growth phenotypes of WT PA14 and combinations of single, double, triple, and quadruple deletion mutants in fpvA, fpvB, fiuA, and foxA. […] Green indicates growth, whereas no growth is indicated in white. […] Representative plates are shown.
(§2) If there were no transporters for a particular siderophore, the mutant would fail to grow due to iron restriction.

[2] = system: PA14 ΔfpvA mutant; test: Growth curves with DSX and siderophores, ΔfpvA; settings: DSX 64 μg/mL or pyoverdine 10 μg/mL alone, 20 h, 10:90
Protocol: (§3) Supplementary file : FIG S1 (A) FpvB is expressed in WT PA14 and the ΔfpvA mutant grown in 10:90. PilF was used as a loading control for outer membrane proteins. (B) FpvA is expressed from WT PA14 grown in 10:90. […] PilF was used as a loading control for outer membrane proteins. (C) Growth curves of PA14 and mutants with DSX and different siderophores in 10:90. PA14, ΔfpvA, ΔfpvB, ΔfpvA ΔfpvB, and ΔpvdA ΔpchA strain growth. Blue indicates control, purple indicates treatment with 64 μg/mL DSX, yellow indicates treatment with 10 μg/mL pyoverdine (PA14), and red indicates treatment with 64 μg/mL DSX and 10 μg/mL pyoverdine (PA14). (D) ΔfpvA, ΔfpvA ΔfpvB, and ΔpvdA ΔpchA strain growth. Blue indicates control, purple indicates treatment with 64 μg/mL DSX, grey indicates treatment with 10 μg/mL ferrichrome, and red indicates treatment with 64 μg/mL DSX and 10 μg/mL ferrichrome. (E) ΔfpvA, ΔfpvA ΔfpvB, and ΔpvdA ΔpchA strain growth. […] Download FIG S1, EPS file, 8.5 MB.
(§4) Another explanation for the susceptibility of the ΔfpvA mutant to DSX is that the mutant produces less pyoverdine compared to WT cells due to loss of the signaling cascade that controls siderophore production in response to its binding to FpvA ([25]). To differentiate whether the fpvA mutant was susceptible to DSX because of reduced pyoverdine production or because FpvB was a poor pyoverdine transporter, we treated the WT, ΔfpvA, ΔfpvB, and ΔfpvA ΔfpvB strains with DSX (64 μg/mL) without and with exogenous pyoverdine (10 μg/mL) for 20 h (Fig. 1; see also Fig. S1C). Growth of the ΔfpvA mutant should be restored if there are functional pyoverdine transporters. […] The growth of the ΔfpvA ΔfpvB mutant was inhibited by DSX and pyoverdine, confirming previously published results ([18]).
(§5) As a control, a ΔpvdA ΔpchA mutant unable to make pyoverdine and pyochelin was also tested. Growth of this mutant was inhibited by DSX.

[3] = system: PA14 ΔfpvA ΔfpvB pHERD20T-fpvA T660C; test: MIC assay, ΔfpvA ΔfpvB expressing FpvA T660C; settings: 10:90 + 2% arabinose
Text: FpvA T660C was used previously to measure pyoverdine-Fe^3+ binding affinity ([32]). However, this technique has not been applied to FpvB. A high-confidence structural model of FpvB was generated using AlphaFold2 ([33], [34]) and aligned with the structure of FpvA (PDB accession number 2O5P) to identify a residue suitable for labeling, with the assumption that FpvA and FpvB undergo similar conformational changes upon ferrisiderophore binding (see Fig. S3A through C in the supplemental material). Based on this analysis, FpvB R648 was mutated to Cys. FpvA T660C and FpvB R648C were each expressed in trans in the ΔfpvA ΔfpvB mutant. […] We could also detect expression by fluorescence microscopy with peripheral labeling consistent with expression in the outer membrane (Fig. 3B). Labeling was undetectable in empty vector and WT controls (see Fig. S4A in the supplemental material).
Supplementary file : FIG S3 Overlay of FpvA and FpvB showing residues mutated to cysteine for labeling with maleimide dyes. FpvA (PDB accession number 2O5P) was superimposed with the AlphaFold2 model of FpvB. FpvA is shown in beige and FpvB in blue. […]
MIC assays were conducted as previously described ([13], [14]). […] The next day, the OD600 was determined with a plate reader (Thermo Scientific) and normalized to percent of growth of the vehicle control after subtracting the OD600 from blank media.

[4] = system: PA14; test: Growth curves with DSX and siderophores, WT PA14; settings: DSX 64 μg/mL or pyoverdine 10 μg/mL alone, 20 h, 10:90
Protocol: as §3, §4

[5] = system: PA14 ΔpvdA ΔpchA mutant; test: Growth curves with DSX and siderophores, ΔpvdA ΔpchA; settings: DSX 64 μg/mL, 20 h
Protocol: as §3, §5

[6] = system: PA14 ΔfpvA ΔfpvB pHERD20T-fpvA; test: MIC assay, ΔfpvA ΔfpvB complemented with fpvA; settings: complementation with fpvA, arabinose induction
Protocol: (§6) The ΔfpvA ΔfpvB mutant was complemented in trans with pHERD20T-fpvA or pHERD20T-fpvB. pHERD20T is an arabinose-inducible vector with expression driven by the PBAD promoter under the control of AraC ([30]).
(§7) MIC assays were conducted as previously described ([13], [14]). Overnight cultures were grown in LB from a glycerol stock at 37°C with shaking (200 rpm). Subcultures in 10:90 (1:100 dilution) were cultured for 4 h. Cells were adjusted to an optical density at 600 nm (OD600) of 0.1/500 in 10:90. All compounds were serially diluted 2-fold in dimethyl sulfoxide (DMSO) or H2O at 75× the final concentration. Plates were sealed to prevent evaporation and incubated at 37°C overnight in a shaking incubator (200 rpm). The next day, the OD600 was determined with a plate reader (Thermo Scientific) and normalized to percent of growth of the vehicle control after subtracting the OD600 from blank media.

[7] = system: PA14 ΔfpvB mutant; test: Growth curves with DSX and siderophores, ΔfpvB; settings: DSX 64 μg/mL or pyoverdine 10 μg/mL alone, 20 h, 10:90
Protocol: as §3, §4

[8] = system: FpvB; test: Western blot of FLAG-tagged FpvB expression after compound treatment; settings: WT PA14 fpvB-FLAG; 10 μg/mL siderophores, 64 μg/mL DSX, 10:90
[9] = system: PA14 ΔfpvA ΔfpvB pHERD20T-fpvB; test: MIC assay, ΔfpvA ΔfpvB complemented with fpvB; settings: complementation with fpvB, arabinose induction
Protocol: as §6, §7

[10] = system: PA14 ΔfpvA ΔfpvB mutant; test: MIC assay, ΔfpvA ΔfpvB mutant; settings: Pseudomonas aeruginosa, PA14
Protocol: as §7

[11] = system: PA14 ΔfpvA mutant; test: MIC assay, ΔfpvA mutant; settings: Pseudomonas aeruginosa, PA14
Protocol: as §7

[12] = system: PA14 ΔfpvA ΔfpvB mutant; test: Growth curves with DSX and siderophores, ΔfpvA ΔfpvB; settings: DSX 64 μg/mL, pyoverdine 10 μg/mL, 20 h
Protocol: as §3, §4, §5

[13] = system: PA14 ΔfpvA mutants; test: Growth phenotypes of deletion mutants, ΔfpvA mutants; settings: 64 μg/mL DSX, 10:90
Text: as §1, §2

[14] = system: PA14 mutant combinations that include ΔfoxA; test: Growth phenotypes of deletion mutants, ΔfoxA combinations; settings: any mutant combination with ΔfoxA; 10 μg/mL ferrioxamine E, 10:90
Text: as §1, §2

[15] = system: PA14 ΔfpvA ΔfpvB pHERD20T-fpvA; test: Checkerboard assay TS and siderophores, FpvA expressed; settings: 10:90 + 2% arabinose
Text: We investigated this hypothesis by treating the ΔfpvA ΔfpvB mutant complemented with fpvA or fpvB with TS and pyoverdine-Fe^3+. If pyoverdine competes with TS for the same binding site in the transporter, a reduction in TS susceptibility would be expected, as competition would decrease entry of the antibiotic into the cell. TS susceptibility decreased >8-fold with increasing concentrations of pyoverdine-Fe^3+ when FpvA was expressed (see Fig. S2A in the supplemental material).
Supplementary file : FIG S2 Checkerboard assays of the PA14 ΔfpvA ΔfpvB strain complemented with fpvA and fpvB in trans with TS and siderophores. […] Checkerboards of the PA14 ΔfpvA ΔfpvB pHERD20T-fpvB strain with TS and enterobactin (G), ferrioxamine E (H), and arthrobactin (I). Results are averaged from three independent biological replicates. Cells in the assay were grown in 10:90 + 2% arabinose. Download FIG S2, EPS file, 2.2 MB.
Checkerboards (8 rows by 8 columns) were conducted as previously described in a 96-well plate (Nunc) ([13], [14]). TS at 75× the final concentration dissolved in DMSO was added in columns from bottom to top in increasing concentrations. Siderophores at 75× the final concentration dissolved in DSMO were added from in rows from left to right in increasing concentrations. Four columns were used for vehicle controls (DMSO) and sterile controls. […] Plates were sealed to prevent evaporation and incubated at 37°C overnight in a shaking incubator (200 rpm). The next day, the OD600 was determined with a plate reader (Thermo Scientific) and normalized to percent of growth of the vehicle control (DMSO) after subtracting the OD600 from blank media.

O=C(O)c1ccc(-n2nc(-c3ccccc3O)nc2-c2ccccc2O)cc1 [DSX, deferasirox]
growth in the presence of compound [1]: failed to grow
growth versus control [2]: inhibited growth
growth with DSX [3]: restored growth with DSX
growth versus control [4]: growth was similar between the control and DSX conditions
growth versus control [5]: inhibited
growth with DSX [6]: restored growth
growth versus control [7]: growth was similar between the control and DSX conditions
stimulation of FpvB expression [8]: None of the compounds stimulated expression
growth with DSX [9]: could not restore growth
MIC [10]: 8 mg/L (≈ 21.4 µM)
MIC [11]: 8 mg/L (≈ 21.4 µM)
growth versus control [12]: inhibited
growth in the presence of compound [13]: unable to grow

O=C1CCC(=O)N(O)CCCCCNC(=O)CCC(=O)N(O)CCCCCNC(=O)CCC(=O)N(O)CCCCCN1 [ferrioxamine E]
growth in the presence of compound [1]: failed to grow
growth in the presence of compound [14]: inhibited
effect of siderophore on TS susceptibility [15]: None of those siderophores reduced TS susceptibility

Reference: publication PMC9973354 (mBio, 2022)
